Tests used:
[1] = Degradation of the drug during dissolution in tertiary butanol/water, lyophilization and secondary drying; format: physicochemical; settings: dissolution at 5° C. in tertiary butanol/water, lyophilization at −16° C. 48 hours, drying at 15° C. under high vacuum 48 hours, light protected
Protocol: [1S-[1R*,3R*(E),7R*,10S*,11R*,12R*,16S*]]-[…]-8,8,10,12,16-pentamethyl-3-[1-methyl-2-(2-methyl-4-thiazolyl)ethenyl]-4-aza-17-oxabicyclo[14.1.0]heptadecane-5,9-dione, 9.86 g, was wetted/partially dissolved with 600 mL of a 9:1 mixture of tertiary butanol and Water for Injection USP which had been pre-cooled to 5° C. Once the drug powder had become completely wetted, dissolution was completed by the addition of 600 mL of a 1:9 mixture of tertiary butanol and Water for Injection and 766 mL of a 1:1 mixture of tertiary butanol and Water for Injection which likewise had been pre-cooled to 5° C. thereby making the final solution a 1:1 mixture. The dissolution was carried out under protection from light.
The solution formed above was promptly lyophilized in a Virtis INOTOP lyophilizer at −16° C. under light protectant conditions over a period of 48 hours. The resultant lyophilized product (lyophile) was then further dried at 15° C. under high vacuum for 48 hours. […] The lyophile was packaged under sterile conditions into 30 mL vials, each containing 10 mg of drug and standard excess to allow for vial/needle/syringe loss.

[2] = Cytotoxic classification of the epothilone analogs
[3] = Physicochemical properties of the epothilone analogs relevant to compounding (solubility, stability in aqueous media, pH, light, wetting)
From the text: Any one or two of these characteristics might be compensated for in compounding a pharmaceutical formulation for intravenous administration, but the combination of all of them presents a formidable challenge to the pharmaceutical compounding chemist.

## C/C(=C\c1csc(C)n1)C1C[C@@H]2O[C@]2(C)CCC[C@H](C)[C@H](O)[C@@H](C)C(=O)C(C)(C)[C@@H](O)CC(=O)N1 (relative stereo) [formula II, [1S-[1R*,3R*(E),7R*,10S*,11R*,12R*,16S*]]-7,11-Dihydroxy-8,8,10,12,16-pentamethyl-3-[1-methyl-2-(2-methyl-4-thiazolyl)ethenyl]-4-aza-7-oxabicyclo[14.1.0]heptadecane-5,9-dione]
[1]
  degradation of the drug: No detectable degradation
[2]
  cytotoxic class: Class D
[3]
  light sensitivity: light sensitive
  wetting characteristics: exceptionally poor
[3]; aqueous media
  solubility in aqueous media: very low solubility
[3]; in contact with aqueous media
  degradation in contact with aqueous media: rapidly degrade
[3]; in solution
  sensitivity to low pH: sensitive to low pH

Source: patent US8632788B2, “Parenteral formulation for epothilone analogs” (Bristol-Myers Squibb Company, priority 2001, dated 2014)
